In ChEMBL document CHEMBL5241090, “A comprehensive overview of β-carbolines and its derivatives as anticancer agents” (Eur J Med Chem, 2021):
In brackets after ≈: the same amount, converted by molar mass.

Experiments:
Type in all cases: functional, cell-based
[1] = system: L5178Y; assay: Cytotoxicity against mouse L5178Y cells incubated 72 hrs
[2] = system: Panel NCI-60 (60 carcinoma cell lines); assay: Cytotoxicity against human Panel NCI-60 (60 carcinoma cell lines)
[3] = system: HCT-116; assay: Cytotoxicity against human HCT-116 cells
[4] = system: CNE-2; assay: Cytotoxicity against human CNE-2 cells incubated for 48 hrs by MTT assay; details: CNE-2, 48 h
[5] = Cytotoxicity against mouse P388 cells
[6] = system: HL-60; assay: Cytotoxicity against human HL-60 cells; details: Homo sapiens, HL-60; read-out: IC50
[7] = system: A549; assay: Cytotoxicity against human A549 cells
[8] = system: A549; assay: Cytotoxicity against human A549 cells incubated for 48 hrs by neutral red dye based assay; details: A549, 48 h
[9] = system: HCT-116; assay: Cytotoxicity against human HCT-116 cells incubated for 48 hrs by neutral red dye based assay; details: HCT-116, 48 h
[10] = system: MCF7; assay: Cytotoxicity against human MCF7 cells incubated for 48 hrs by neutral red dye based assay; details: MCF7, 48 h
[11] = system: L1210; assay: Cytotoxicity against mouse L1210 cells
[12] = system: KB; assay: Cytotoxicity against human KB cells; details: Homo sapiens, KB; read-out: IC50
[13] = system: Hep 3B2; assay: Cytotoxicity against human Hep3B cells after 48 hrs incubation by SRB assay
[14] = system: HepG2; assay: Cytotoxicity against human HepG2 cells after 48 hrs incubation by SRB assay; details: HepG2, 48 h
[15] = system: SK-OV-3; assay: Antiproliferative activity against human SK-OV-3 cells
[16] = system: A2780; assay: Antiproliferative activity against human A2780 cells
[17] = system: NCI-H1299; assay: Cytotoxicity against human NCI-H1299 cells
[18] = system: KB; assay: Cytotoxicity against human Vincristine-resistant KB cells; details: pooled result: one value given for 6 cell lines, strains, targets or settings
[19] = system: HeLa; assay: Cytotoxicity against human HeLa cells

Q: For `CN[C@H](CSC)c1nccc2c1[nH]c1ccc(O)c(Br)c12` [EUDISTOMIDIN C], which IC50 ([1]; 72 h) is on record?
A: 0.42 µg/mL (≈ 1.15 µM)

Q: For `Fc1ccc(-c2nc(-c3nc4ccc(Cl)cc4[nH]3)cc3c2[nH]c2ccccc23)cc1`, which IC50 [2] is on record?
A: 0.3 µM

Q: Which IC50 [3] does the source give for `COc1cccc2c1C(=O)c1c(O)c3c(c(O)c1C2=O)C[C@@](O)(C(=O)CO)C[C@@H]3O[C@H]1C[C@H](N)[C@H](O)[C@H](C)O1` [DOXORUBICIN] here?
A: 0.39 µM

Q: Which IC50 [4] does the source give for `C[n+]1ccc2c3ccccc3n3c2c1CC(=O)C3=O` here?
A: 23.7 µg/mL

Q: With `N[C@@H]1CSCON2CCc3c([nH]c4cc(Br)ccc34)[C@H]12` as the molecule, how does the IC50 [5] read?
A: 0.01 µg/mL (≈ 0.0282 µM)

Q: What does the source list for `Nc1nccc(-c2nccc3c2[nH]c2c([C@@H]4c5ccccc5N=C5[C@@H](O)CCN54)c(O)ccc23)n1`?
A: IC50 [6]: 39 µM; IC50 [7]: 55.7 µM

Q: With `COc1ccc2nc(-c3cc4c([nH]c5ccccc54)c(-c4ccc(F)c(F)c4)n3)[nH]c2c1` as the molecule, how does the IC50 [2] read?
A: 0.3 µM

Q: Which IC50 [6] does the source give for `COc1ccc2c3c([nH]c2c1)[C@]1(NCC3)C(C)=C(C)c2nc3ccccc3c(=O)n21` here?
A: 9.4 µM

Q: Which IC50 [5] does the source give for `C1=C\CC[C@]23CN4CCCC/C=C\CC[C@@]5(O[C@H]5[C@@H](c5nccc6c5[nH]c5ccccc56)[C@@H]2CC4)[C@@H]3NCCCC/1` [MANZAMINE B] here?
A: 6 µg/mL (≈ 10.9 µM)

Q: For `COc1c(O)c(=O)n2c3ccccc3c3ccnc1c32`, which IC50 [4] is on record?
A: 7.96 µg/mL (≈ 29.9 µM)

Q: Which IC50 [5] does the source give for `O=C1CCCCN2[C@@H](C1)C[C@]13CN4CCCC/C=C\CC[C@](O)(C=C(c5nccc6c5[nH]c5c(O)cccc56)[C@@H]1CC4)[C@H]23` here?
A: 5 µg/mL (≈ 8.61 µM)

Q: With `O=c1ccc2nccc3c4cccc(O)c4n1c23` as the molecule, how does the IC50 [4] read?
A: 13.4 µg/mL (≈ 56.9 µM)

Q: Which IC50 [8] does the source give for `Nc1nccc(C2=NCCc3c2[nH]c2ccccc32)n1` here?
A: 1.92 µg/mL (≈ 7.29 µM)

Q: What about the IC50 [9] of the same molecule?
A: 0.59 µg/mL (≈ 2.24 µM)

Q: And the IC50 [10]?
A: 2.81 µg/mL (≈ 10.7 µM)

Q: With `O[C@H]1[C@H]2[C@@H]3c4[nH]c5ccccc5c4CCN3CN3CCCC/C=C\CC[C@@]45CN(CCCC/C=C\CC[C@@]1(O)[C@H]34)CC[C@@H]25` as the molecule, how does the IC50 [11] read?
A: 4.4 µg/mL (≈ 7.52 µM)

Q: For `Oc1ccc2[nH]c3c(C4=C[C@@]5(O)CC/C=C\CCCCN6CC[C@@H]4[C@@]4(C6)CC67CCC(CCCN6[C@H]45)O7)nccc3c2c1`, which IC50 [12] is on record?
A: 7.9 µg/mL (≈ 13.6 µM)

Q: Which IC50 [13] does the source give for `COc1cnc(C(=O)[C@H](CC(=O)c2nccc3c2[nH]c2ccccc23)OC)c2[nH]c3ccccc3c12` here?
A: 18.6 µM

Q: And the IC50 [14]?
A: 43.9 µM

Q: For `COc1ccc(-c2nc(-c3nc4ccc(F)cc4[nH]3)cc3c2[nH]c2ccccc23)cc1`, which IC50 [2] is on record?
A: 0.3 µM

Q: Which IC50 [12] does the source give for `CC(C)CC(N)c1nccc2c1[nH]c1cc(Br)ccc12` (stereo not given) [EUDISTALBIN A] here?
A: 3.2 µg/mL (≈ 9.63 µM)

Q: Which results are given for `COc1cnc(C(=O)[C@H](Cc2nccc3c2[nH]c2ccccc23)OC)c2[nH]c3ccccc3c12`?
A: IC50 [13]: 46.2 µM; IC50 [14]: 27.5 µM

Q: For `C=Cc1ncc(OC)c2c1[nH]c1ccccc12`, which IC50 [15] is on record?
A: 15.7 µg/mL (≈ 70.1 µM)

Q: And the IC50 [16]?
A: 4.77 µg/mL (≈ 21.3 µM)

Q: Which IC50 [11] does the source give for `Oc1ccc2[nH]c3c(C4=C[C@@]5(O)CC/C=C\CCCCN6CC[C@@H]4[C@]4(C[C@@H]7/C=C\CCCCN7[C@H]45)C6)nccc3c2c1` [MANZAMINE Y] here?
A: 1.5 µg/mL (≈ 2.66 µM)

Q: What about the IC50 [12] of the same molecule?
A: 2.5 µg/mL (≈ 4.43 µM)

Q: For `CC(=O)c1nc(C(=O)NCCc2c[nH]c3ccccc23)cc2c1[nH]c1ccccc12` [MARINACARBOLINE D], which IC50 [17] is on record?
A: 15 µM

Q: What about the IC50 [3] of the same molecule?
A: 15 µM

Q: And the IC50 [7]?
A: 15 µM

Q: With `COc1ccc2c3cc[n+]([O-])c4ccc(=O)n(c2c1)c34` as the molecule, how does the IC50 [18] read?
A: 3.8 µg/mL (≈ 14.3 µM)

Q: And the IC50 [5]?
A: 3.8 µg/mL (≈ 14.3 µM)

Q: What does the source list for `COc1ccccc1-c1c(-c2ccccc2)ncc2[nH]c3ccccc3c12`?
A: IC50 [7]: 8.2 µM; IC50 [19]: 20.8 µM

Q: Which results are given for `COc1nccc2c1[nH]c1ccccc12`?
A: IC50 [15]: 22.3 µg/mL (≈ 112 µM); IC50 [16]: 9.72 µg/mL (≈ 49 µM)

Q: With `Oc1ccc2[nH]c3c(C4=C[C@@]5(O)CC/C=C\CCCCN6CC[C@@H]4[C@]4(CC7/C=C\CCCCN7[C@H]45)C6)nccc3c2c1` (stereo not given in full) as the molecule, how does the IC50 [12] read?
A: 7.3 µg/mL (≈ 12.9 µM)

Q: Which IC50 [11] does the source give for `O[C@]12C=C(C3NCCc4c3[nH]c3ccccc43)[C@@H]3CCN(CCCC/C=C\CC1)C[C@@]31CC/C=C\CCCCN[C@H]12` (stereo not given in full) here?
A: 1.3 µg/mL (≈ 2.34 µM)

Q: With `O[C@]12C=C(c3nccc4c3[nH]c3ccccc34)[C@@H]3CCN(CCCC/C=C\CC1)C[C@@]31CC34CCC(CCCN3[C@H]12)O4` as the molecule, how does the EC50 ([1]; time 72 hrs, read-out: ED50 (the source's name)) read?
A: 1.8 µg/mL (≈ 3.19 µM)

Q: For `COc1ccc(CCNC(=O)c2cc3c([nH]c4ccccc43)c(C(C)=O)n2)cc1` [MARINACARBOLINE A], which IC50 [17] is on record?
A: 24.4 µM

Q: And the IC50 [3]?
A: 24.4 µM

Q: What about the IC50 [7] of the same molecule?
A: 24.4 µM

Q: What does the source list for `C=Cc1ncc(OC)c2c1[nH]c1c(OC)cccc12`?
A: IC50 [15]: 11.9 µg/mL (≈ 46.8 µM); IC50 [16]: 2.02 µg/mL (≈ 7.94 µM)
